Measurements from the NIST ThermoML archive (doi:10.1021/acs.jced.8b01135).
Numbers after ± are expanded uncertainties.

Test: xn = mol fraction of the nth substance listed
Conditions: 102 kPa, Liquid; for speed of sound: Frequency=3 MHz, Single path-length method; for mass density: Vibrating tube method; for viscosity: Concentric cylinders viscometry

CCCCCCCCCCCCC1CCCCC1 [dodecylcyclohexane] + CCCCCCCCCCCC
Conditions | mass density [kg/m3] | speed of sound [m/s] | viscosity [mPa·s]
288.15 K, x1 = 0.1005 | 762.18 ± 0.71 | 1333.2 ± 0.8 | –
288.15 K, x1 = 0.2001 | 771.24 ± 0.71 | 1348 ± 0.8 | –
288.15 K, x1 = 0.298 | 779.52 ± 0.71 | 1361.9 ± 0.8 | –
288.15 K, x1 = 0.4031 | 787.8 ± 0.71 | 1375.7 ± 0.9 | –
288.15 K, x1 = 0.5001 | 794.95 ± 0.71 | 1387.9 ± 0.9 | –
288.15 K, x1 = 0.6005 | 801.89 ± 0.71 | 1400 ± 0.9 | –
288.15 K, x1 = 0.7003 | 808.42 ± 0.71 | 1411.3 ± 0.9 | –
288.15 K, x1 = 0.7997 | 814.5 ± 0.71 | 1421.8 ± 0.9 | –
288.15 K, x1 = 0.8994 | 820.23 ± 0.71 | 1432.1 ± 0.9 | –
288.15 K, x1 = 1 | 825.71 ± 0.71 | 1441.5 ± 0.9 | –
293.15 K, x1 = 0.1005 | 758.6 ± 0.71 | 1313.7 ± 0.8 | 1.82 ± 0.06
293.15 K, x1 = 0.2001 | 767.69 ± 0.71 | 1328.7 ± 0.8 | 2.14 ± 0.02
293.15 K, x1 = 0.298 | 776 ± 0.71 | 1342.6 ± 0.8 | 2.53 ± 0.02
293.15 K, x1 = 0.4031 | 784.32 ± 0.71 | 1356.6 ± 0.9 | 3.03 ± 0.03
293.15 K, x1 = 0.5001 | 791.49 ± 0.71 | 1368.9 ± 0.9 | 3.55 ± 0.03
293.15 K, x1 = 0.6005 | 798.47 ± 0.71 | 1381 ± 0.9 | 4.17 ± 0.04
293.15 K, x1 = 0.7003 | 805.01 ± 0.71 | 1392.4 ± 0.9 | 4.9 ± 0.03
293.15 K, x1 = 0.7997 | 811.11 ± 0.71 | 1403.1 ± 0.9 | 5.73 ± 0.03
293.15 K, x1 = 0.8994 | 816.87 ± 0.71 | 1413.3 ± 0.9 | 6.68 ± 0.04
293.15 K, x1 = 1 | 822.36 ± 0.71 | 1422.9 ± 0.9 | 7.76 ± 0.04
298.15 K, x1 = 0.1005 | 755.01 ± 0.71 | 1294.4 ± 0.8 | –
298.15 K, x1 = 0.2001 | 764.14 ± 0.71 | 1309.5 ± 0.8 | –
298.15 K, x1 = 0.298 | 772.48 ± 0.71 | 1323.5 ± 0.8 | –
298.15 K, x1 = 0.4031 | 780.84 ± 0.71 | 1337.6 ± 0.9 | –
298.15 K, x1 = 0.5001 | 788.04 ± 0.71 | 1350 ± 0.9 | –
298.15 K, x1 = 0.6005 | 795.04 ± 0.71 | 1362.1 ± 0.9 | –
298.15 K, x1 = 0.7003 | 801.61 ± 0.71 | 1374 ± 0.9 | –
298.15 K, x1 = 0.7997 | 807.73 ± 0.71 | 1384.7 ± 0.9 | –
298.15 K, x1 = 0.8994 | 813.51 ± 0.71 | 1395.1 ± 0.9 | –
298.15 K, x1 = 1 | 819.02 ± 0.71 | 1404.8 ± 0.9 | –
303.15 K, x1 = 0.1005 | 751.42 ± 0.71 | 1275.3 ± 0.8 | 1.53 ± 0.06
303.15 K, x1 = 0.2001 | 760.58 ± 0.71 | 1290.5 ± 0.8 | 1.75 ± 0.02
303.15 K, x1 = 0.298 | 768.97 ± 0.71 | 1304.6 ± 0.8 | 2.05 ± 0.02
303.15 K, x1 = 0.4031 | 777.36 ± 0.71 | 1318.8 ± 0.9 | 2.43 ± 0.02
303.15 K, x1 = 0.5001 | 784.59 ± 0.71 | 1331.3 ± 0.9 | 2.82 ± 0.02
303.15 K, x1 = 0.6005 | 791.62 ± 0.71 | 1343.5 ± 0.9 | 3.28 ± 0.03
303.15 K, x1 = 0.7003 | 798.2 ± 0.71 | 1355.4 ± 0.9 | 3.79 ± 0.03
303.15 K, x1 = 0.7997 | 804.35 ± 0.71 | 1366.3 ± 0.9 | 4.38 ± 0.03
303.15 K, x1 = 0.8994 | 810.15 ± 0.71 | 1376.6 ± 0.9 | 5.05 ± 0.03
303.15 K, x1 = 1 | 815.68 ± 0.71 | 1386.3 ± 0.9 | 5.81 ± 0.03
313.15 K, x1 = 0.1005 | 744.23 ± 0.71 | 1237.7 ± 0.8 | 1.29 ± 0.07
313.15 K, x1 = 0.2001 | 753.48 ± 0.71 | 1253.1 ± 0.8 | 1.46 ± 0.02
313.15 K, x1 = 0.298 | 761.93 ± 0.71 | 1267.5 ± 0.8 | 1.7 ± 0.02
313.15 K, x1 = 0.4031 | 770.4 ± 0.71 | 1281.9 ± 0.9 | 1.99 ± 0.02
313.15 K, x1 = 0.5001 | 777.69 ± 0.71 | 1294.6 ± 0.9 | 2.28 ± 0.02
313.15 K, x1 = 0.6005 | 784.77 ± 0.71 | 1307 ± 0.9 | 2.63 ± 0.02
313.15 K, x1 = 0.7003 | 791.4 ± 0.71 | 1319.2 ± 0.9 | 3.01 ± 0.03
313.15 K, x1 = 0.7997 | 797.6 ± 0.71 | 1330.2 ± 0.9 | 3.45 ± 0.03
313.15 K, x1 = 0.8994 | 803.45 ± 0.71 | 1340.7 ± 0.9 | 3.93 ± 0.03
313.15 K, x1 = 1 | 809.03 ± 0.71 | 1350.5 ± 0.9 | 4.48 ± 0.03
323.15 K, x1 = 0.1005 | 737.02 ± 0.71 | 1200.9 ± 0.8 | 1.09 ± 0.02
323.15 K, x1 = 0.2001 | 746.35 ± 0.71 | 1216.6 ± 0.8 | 1.27 ± 0.02
323.15 K, x1 = 0.298 | 754.88 ± 0.71 | 1231.1 ± 0.8 | 1.43 ± 0.02
323.15 K, x1 = 0.4031 | 763.43 ± 0.71 | 1245.9 ± 0.9 | 1.66 ± 0.02
323.15 K, x1 = 0.5001 | 770.78 ± 0.71 | 1258.7 ± 0.9 | 1.89 ± 0.02
323.15 K, x1 = 0.6005 | 777.93 ± 0.71 | 1271.3 ± 0.9 | 2.16 ± 0.02
323.15 K, x1 = 0.7003 | 784.61 ± 0.71 | 1283.6 ± 0.9 | 2.45 ± 0.02
323.15 K, x1 = 0.7997 | 790.86 ± 0.71 | 1294.8 ± 0.9 | 2.78 ± 0.02
323.15 K, x1 = 0.8994 | 796.76 ± 0.71 | 1305.4 ± 0.9 | 3.14 ± 0.03
323.15 K, x1 = 1 | 802.38 ± 0.71 | 1315.4 ± 0.9 | 3.55 ± 0.03
333.15 K, x1 = 0.1005 | 729.78 ± 0.71 | 1165.1 ± 0.8 | 0.945 ± 0.021
333.15 K, x1 = 0.2001 | 739.2 ± 0.71 | 1181 ± 0.8 | 1.09 ± 0.02
333.15 K, x1 = 0.298 | 747.81 ± 0.71 | 1195.8 ± 0.8 | 1.22 ± 0.02
333.15 K, x1 = 0.4031 | 756.44 ± 0.71 | 1210.7 ± 0.9 | 1.4 ± 0.02
333.15 K, x1 = 0.5001 | 763.86 ± 0.71 | 1223.8 ± 0.9 | 1.59 ± 0.02
333.15 K, x1 = 0.6005 | 771.08 ± 0.71 | 1236.5 ± 0.9 | 1.8 ± 0.02
333.15 K, x1 = 0.7003 | 777.81 ± 0.71 | 1248.9 ± 0.9 | 2.03 ± 0.02
333.15 K, x1 = 0.7997 | 784.13 ± 0.71 | 1260.3 ± 0.9 | 2.29 ± 0.02
333.15 K, x1 = 0.8994 | 790.08 ± 0.71 | 1271 ± 0.9 | 2.57 ± 0.02
333.15 K, x1 = 1 | 795.75 ± 0.71 | 1281.4 ± 0.9 | 2.88 ± 0.03
